How the values were obtained:
Format in all cases: cell-based
[1] = system: Wnt activity (Sp5-Luc reporter, SW480 colon carcinoma cells); assay: Wnt activity screening assay, Sp5-Luc reporter gene in SW480 cells; conditions: Homo sapiens, overnight incubation
Description: The screening assay for Wnt activity is described as follows. Reporter cell lines can be generated by stably transducing cancer cell lines (e.g., colon cancer) or primary cells (e.g., IEC-6 intestinal cells) with a lentiviral construct that includes a Wnt-responsive promoter driving expression of the firefly luciferase gene.
SW480 colon carcinoma cells were transduced with a lentiviral vector expressing luciferase with a human Sp5 promoter consisting of a sequence of eight TCF/LEF binding sites. SW480 cells stably expressing the Sp5-Luc reporter gene and a hygromycin resistance gene were selected by treatment with 150 μg/mL of hygromycin for 7 days. These stably transduced SW480 cells were expanded in cell culture and used for all further screening activities. Each compound was dissolved in DMSO as a 10 mM stock and used to prepare compound source plates. Serial dilution (1:3, 10-point dose-response curves starting from 10 μM) and compound transfer was performed using the ECHO 550 (Labcyte, Sunnyvale, Calif.) into 384-well white solid bottom assay plates (Greiner Bio-One) with appropriate DMSO backfill for a final DMSO concentration of 0.1%. For Sp5-Luc reporter gene assays, the cells were plated at 4,000 cells/well in 384-well plates with medium containing 1% fetal bovine serum and incubated overnight at 37° C. and 5% CO2. Following incubation, 20 μl of BrightGlo luminescence reagent (Promega) was added to each well of the 384-well assay plates. The plates were placed on an orbital shaker for 2 min and then luminescence was quantified using the Envision (Perkin Elmer) plate reader. Readings were normalized to DMSO only treated cells, and normalized activities were utilized for EC50 calculations using the dose-response log (inhibitor) vs. response-variable slope (four parameters) nonlinear regression feature available in GraphPad Prism 5.0 (or Dotmatics). For EC50 of >10 μM, the percent inhibition at 10 μM is provided.

SW480 colon cancer cells = assay: Cell viability assay (CellTiter-Blue); conditions: Homo sapiens, 96 h, four days
Experimental: Representative compounds were screened using the following assay procedure to assess the effect on cell viability as described below.
Each compound was dissolved in DMSO as a 10 mM stock and used to prepare compound source plates. Serial dilution (1:3, 8-point dose-response curves from 10 μM to 0.0045 μM) and compound transfer was performed using the ECHO 550 (Labcyte, Sunnyvale, Calif.) into 96-well clear bottom, black-walled plates (Corning-Costar).
Approximately 2×10^3 SW480 colon cancer cells were seeded into each well and allowed to incubate in the presence or absence of compound for four days at 37° C./5% CO2. Eight replicates of DMSO-treated cells served as controls and cells treated with compound were performed in duplicate.
After incubation, 20 μL of CellTiter-Blue (Promega) was added to each well allowed to incubate for approximately 3 hours. This reagent was a buffered solution which contains resazurin, metabolically active cells were able to reduce rezarurin (blue) into resorufin (pink) which was highly fluorescent. This measured fluorescence was used as a readout for cell viability.
After incubation, the plates were read at Ex 560 nm Em 590 nm (Cytation 3, BioTek). Dose-response curves were generated and EC50 concentration values were calculated using non-linear regression curve fit in the GraphPad Prism (San Diego, Calif.) or Dotmatics' Studies Software (Bishops Stortford, UK). For EC50 of >10 μM, the percent inhibition at 10 μM is provided.

[2] = system: primary human fibroblasts derived from IPF patients (LL29 cells) treated with TGF-β1; assay: Inhibition of fibrotic process, αSMA staining in TGF-β1 treated LL29 fibroblasts; conditions: Fibroblast, 96 h, % αSMA positive LL29 cells, TGF-β1 20 ng/mL, 4 days
Description: Representative compounds were screened using primary human fibroblasts (derived from IPF patients) treated with TGF-β1 to determine their ability to inhibit the fibrotic process.
Primary human fibroblasts derived from IPF patients (LL29 cells) [^1Xiaoqiu Liu, et. al., “Fibrotic Lung Fibroblasts Show Blunted Inhibition by cAMP Due to Deficient cAMP Response Element-Binding Protein Phosphorylation”, Journal of Pharmacology and Experimental Therapeutics (2005), 315(2), 678-687; ^2Watts, K. L., et. al., “RhoA signaling modulates cyclin D1 expression in human lung fibroblasts; implications for idiopathic pulmonary fibrosis”, Respiratory Research (2006), 7(1), 88] were obtained from American Type Culture Collection (ATCC) and expanded in F12 medium supplemented with 15% Fetal Bovine Serum and Penicillin/Streptomycin.
Each compound was dissolved in DMSO as a 10 mM stock and used to prepare compound source plates. Serial dilution (1:2, 11-point dose-response curves from 10 μM to 1.87 nM) and compound transfer was performed using the ECHO 550 (Labcyte, Sunnyvale, Calif.) into 384-well clear bottom assay plates (Greiner Bio-One) with appropriate DMSO backfill for a final DMSO concentration of 0.1%. LL29 cells are plated at 1,500 cells/well in 80 μL/well F12 medium supplemented with 1% Fetal Bovine Serum. One hour after addition of the cells, TGF-β1 (Peprotech; 20 ng/mL) was added to the plates to induce fibrosis (ref. 1 and 2 above). Wells treated with TGF-β1 and containing DMSO were used as controls. Cells were incubated at 37° C. and 5% CO2 for 4 days. Following incubation for 4 days, SYTOX green nucleic acid stain (Life Technologies [Thermo Fisher Scientific]) was added to the wells at a final concentration of 1 μM and incubated at room temperature for 30 min. Cells were then fixed using 4% formaldehyde (Electron Microscopy Sciences), washed 3 times with PBS followed by blocking and permeabilization using 3% Bovine Serum Albumin (BSA; Sigma) and 0.3% Triton X-100 (Sigma) in PBS. Cells were then stained with antibody specific to α-smooth muscle actin (αSMA; Abcam) (ref. 1 and 2 above) in 3% Bovine Serum Albumin (BSA; Sigma) and 0.3% Triton X-100 (Sigma) in PBS, and incubated overnight at 4° C. Cells were then washed 3 times with PBS, followed by incubation with Alexa Flor-647 conjugated secondary antibody (Life Technologies [Thermo Fisher Scientific]) and DAPI at room temperature for 1 hour. Cells were then washed 3 times with PBS and plates were sealed for imaging. αSMA staining was imaged by excitation at 630 nm and emission at 665 nm and quantified using the Compartmental Analysis program on the CellInsight CX5 (Thermo Scientific). Dead or apoptotic cells were excluded from analysis based on positive SYTOX green staining. % of total cells positive for αSMA were counted in each well and normalized to the average of 11 wells treated with TGF-β1 on the same plate using Dotmatics' Studies Software. The normalized averages (fold change over untreated) of 3 replicate wells for each compound concentration were used to create dose-responses curves and EC50 values were calculated using non-linear regression curve fit in the Dotmatics' Studies Software. For EC50 of >10 μM, the percent inhibition at 10 μM is provided.

IL-6 (THP-1 cells) = assay: IL-6 inhibition in LPS-stimulated THP-1 cells (HTRF); conditions: Homo sapiens; IL-6 in THP-1 cells, LPS 500 ng/mL, 22 hours
Experimental: Human monocyte cell line (THP-1 cells; Catalog # TIB-202, ATCC, Manassas, Va.) were cultured in Roswell Park Memorial Institute (RPMI) 1640 Medium (Catalog #21870-100, Buffalo, N.Y.) with 1% L-glutamine, 1% HEPES, 1% Sodium Pyruvate, 2% Sodium Bicarbonate supplemented with 100 units/mL penicillin, 50 μg/mL streptomycin, 2-mercaptoethanol (0.05 mM) [basal medium] and 10% fetal bovine serum (Catalog #16140089, Life Technologies, Carlsbad, Calif.) at 37° C. and 5% CO2.
THP-1 cells were cultured in basal media with 1% FBS for 24 hours before the start of the assay. Each compound was dissolved in DMSO as a 10 mM stock and used to prepare compound source plates. Serial dilution (1:3, 10-point dose-response curves starting from 10 μM) and compound transfer was performed using the ECHO 550 (Labcyte, Sunnyvale, Calif.) into 384-well white low volume assay plates (Greiner Bio-One) with appropriate DMSO backfill for a final DMSO concentration of 0.1%. THP-1 cells were plated at 5000 cells/well in the 384-well plates and incubated at 37° C. for 2 h. 500 ng/mL of LPS was added after 2 hours and cells were incubated for another 22 hours at 37° C. Plates were spun in a centrifuge for 1 minute at […] and a mixture of anti-IL6 XL665, and anti-IL6 Cryptate diluted in reconstitution buffer (Cisbio Inc.) was added to each well. Following incubation for 3 hrs at room temperature, Homogeneous Time-Resolved Fluorescence (HTRF) was measured using the Envision (Perkin Elmer) at 665 nm and […]. The ratio of fluorescence at 665 nm to 620 nm was used as a readout for IL6 quantification. All samples were processed in duplicate. Readings were normalized to DMSO treated cells and normalized activities were utilized for EC50 calculations using the dose-response log (inhibitor) vs. response-variable slope (four parameters) nonlinear regression feature available in GraphPad Prism 5.0 (or Dotmatics). For EC50 of >10 μM, the percent inhibition at 10 μM is provided.

In the case of `c1csc(-c2ccnc3[nH]c(-c4n[nH]c5cnc(-c6cncc(CN7CCCCC7)c6)cc45)cc23)c1` [Compound 351, 5-(5-(Piperidin-1-ylmethyl)pyridin-3-yl)-3-(4-(thiophen-2-yl)-1H-pyrrolo [2,3-b]pyridin-2-yl)-1H-pyrazolo[3,4-c]pyridine], the EC50 [1] is reported as 6900 nM, the EC50 (SW480 colon cancer cells) is reported as 4100 nM and the EC50 [2] is reported as 2560 nM. It also gave an EC50 (IL-6 (THP-1 cells)) of 182 nM.

`c1ccc(-c2cc3c(-c4cc5c(-c6cccs6)ccnc5[nH]4)n[nH]c3cn2)nc1` [Compound 364, 5-(Pyridin-2-yl)-3-(4-(thiophen-2-yl)-1H-pyrrolo[2,3-b]pyridin-2-yl)-1H-pyrazolo[3,4-c]pyridine] gave an EC50 [1] of 630 nM, an EC50 (SW480 colon cancer cells) of 706 nM and an EC50 [2] of 403 nM. It also gave an EC50 (IL-6 (THP-1 cells)) of 1010 nM.

In the case of `Cc1ncc(-c2cc3c(-c4cc5c(-c6cccs6)ccnc5[nH]4)n[nH]c3cn2)n1C` [Compound 701, 5-(1,2-Dimethyl-1H-imidazol-5-yl)-3-(4-(thiophen-2-yl)-1H-pyrrolo[2,3-b]pyridin-2-yl)-1H-pyrazolo[3,4-c]pyridine], the EC50 [1] is reported as 1060 nM, the EC50 (SW480 colon cancer cells) is reported as 1220 nM and the EC50 [2] is reported as 928 nM. It also gave an EC50 (IL-6 (THP-1 cells)) of 988 nM.
